Source: ChEMBL document CHEMBL5154646, “Structure-guided optimization of 1H-imidazole-2-carboxylic acid derivatives affording potent VIM-Type metallo-β-lactamase inhibitors” (Eur J Med Chem, 2022)
The source made the active and inactive calls. The calls are words filed in the database; no cut-off is given here.

Experiments:
[1] = Inhibition of bacterial VIM-2 (27 to 266 residues) expressed in Escherichia coli Transetta (DE3) using FC-5 as substrate preincubated with enzyme for 10 mins followed by substrate addition by fluorescence based analysis; set-up: species or system Bacteria
[2] = Inhibition of bacterial recombinant full length C-terminal-TEV-His6-tagged VIM-1 expressed in Escherichia coli Transetta using FC-5 as substrate preincubated with enzyme for 10 mins followed by substrate addition by fluorescence based analysis; set-up: species or system Bacteria
Escherichia coli [3] = assay: Potentiation of meropenem-induced antibacterial activity against Escherichia coli C1541 expressing IMP-1 assessed as meropenem MIC at 10 ug/ml incubated for 18 to 20 hrs by broth microtiter dilution method (reference value: 32 ug/ml); assay type: functional; settings: dose 10 µg/ml, time 18-20 hrs
[4] = Toxicity in ICR mouse assessed as effect on histological architecture of heart at 500 to 2000 mg/kg, ip administered for 14 days by hematoxylin and eosin staining based histopathological assay; assay type: organism-based; settings: in vivo, 336 h, dose 500-2000 mg/kg, time 14 day
Escherichia coli [5] = assay: Synergistic antibacterial activity against Escherichia coli C1541 expressing VIM-2 assessed as fractional inhibitory concentration index incubated for 18 to 20 hrs in presence of meropenem and 1 uM of zinc sulfate by checkerboard microdilution assay; assay type: functional; settings: time 18-20 hrs
Escherichia coli [6] = assay: Antibacterial activity against Escherichia coli C1580 expressing VIM-2 assessed as elongated and filamentous bacterial cells at 20 ug/ml incubated for 1 hr in presence of meropenem by confocal microscopy; assay type: functional, organism-based; settings: dose 20.0 µg/ml
Pseudomonas aeruginosa [7] = assay: Potentiation of meropenem-induced antibacterial activity against Pseudomonas aeruginosa 5621 expressing VIM-2 assessed as meropenem MIC at 100 ug/ml incubated for 18 to 20 hrs in presence of meropenem by CLSI based broth microtiter dilution method (reference value: 64 ug/ml); assay type: functional; settings: dose 100 µg/ml, time 18-20 hrs
Pseudomonas aeruginosa [8] = assay: Induction of morphological changes in Pseudomonas aeruginosa W35 expressing VIM-2 assessed as elongated morphology with localized swelling at 10 ug/ml incubated for 1 hr in presence of meropenem by confocal microscopic analysis; assay type: functional, organism-based; settings: dose 10.0 µg/ml
Pseudomonas aeruginosa [9] = assay: Induction of morphological changes in Pseudomonas aeruginosa W35 expressing VIM-2 assessed as localized swelling, elongation with increased cell permeability at 10 ug/ml incubated for 1 hr in presence of meropenem by transmission electron microscopy; assay type: functional, organism-based; settings: dose 10.0 µg/ml
[10] = Toxicity in ip dosed ICR mouse assessed as maximum tolerated dose administered for 14 days; assay type: organism-based; settings: in vivo, time 14 day
[11] = Tmax in Sprague-Dawley rat at 100 mg/kg, ip by UPLC analysis; assay type: ADME, organism-based; settings: in vivo
[12] = Half life in Sprague-Dawley rat at 100 mg/kg, ip by UPLC analysis; assay type: ADME, organism-based; settings: in vivo
[13] = Toxicity in ICR mouse assessed as change in overall appearance at 500 to 2000 mg/kg, ip administered for 14 days; assay type: organism-based; settings: in vivo, 336 h, dose 500-2000 mg/kg, time 14 day
Pseudomonas aeruginosa [14] = assay: Potentiation of meropenem-induced antibacterial activity against Pseudomonas aeruginosa W35 expressing VIM-2 assessed as fold reduction in meropenem MIC at 100 ug/ml incubated for 18 to 20 hrs by CLSI based broth microtiter dilution method; assay type: functional; settings: dose 100 µg/ml; time 18-20 hrs

## O=C(O)c1nccn1Cc1ccncc1
[1]
  IC50: 0.56 µM
[2]
  IC50: 29.5 µM
Escherichia coli [3]
  MIC: 32 µg/mL
[4]
  Activity: Non-Toxic
Escherichia coli [5]
  fractional inhibitory concentration index (FICI): 0.05
Escherichia coli [6]
  Activity: Active
Pseudomonas aeruginosa [7]
  MIC: 32 µg/mL
Pseudomonas aeruginosa [8]
  Activity: Active
Pseudomonas aeruginosa [9]
  Activity: Active
[10]
  MTD at 336 h: ≤ 2000 mg/kg
[11]
  Tmax: 9 min
[12]
  half-life: 74.4 min
[13]
  Activity: Non-Toxic
Pseudomonas aeruginosa [14]
  fold change (FC): 16
